Earlier results on one molecule are cited in patent US6147189A, “Polypeptides that include conformation-constraining groups which flank a protein-protein interaction site” (Virginia Commonwealth University, priority 1997, dated 2000).

Where a SMILES comes first, the peptide text is derived from it.

The subject of this data set is receptors of sweet tasting papillae. Conditions: comparison value.

For the molecule `COC(=O)[C@H](Cc1ccccc1)NC(=O)[C@@H](N)CC(=O)O` [aspartame] (H-Asp-Phe-OMe), the “Sweetness compared with sugar” value is reported as 160 times sweeter than sugar.
